Measurements taken from US20120244120A1, “INHIBITORS OF HEMOPOIETIC CELL KINASE (P59-HCK) AND THEIR USE IN THE TREATMENT OF INFLUENZA INFECTION” (priority 2009, published 2012).
Marks after values point to notes of the source that are not given here.

Tests used:
[1] = system: influenza (H1N1A/PR/8/34); experiment: microbe, parasite or virus in culture; assay type: cell-based
[2] = system: influenza (H3N1 Memphis 71); details: mouse, in vivo
p38 MAPKα (MAPK14) = p38 MAPKα (MAPK14) (Homo sapiens, UniProt Q16539); experiment: p38α enzyme assay (Z'-LYTE FRET, via MAPKAP-K2 activation); assay type: biochemical; details: 2 hr pre-incubation, ATP 10 μM
HCK enzyme = HCK enzyme (Homo sapiens, UniProt P08631); experiment: HCK enzyme assay (Z'-LYTE FRET); assay type: biochemical; details: 2 hr pre-incubation, ATP 15 μM
c-Src enzyme = c-Src enzyme (Homo sapiens, UniProt P12931); experiment: c-Src enzyme assay (Z'-LYTE FRET); assay type: biochemical; details: ATP 200 μM
MDCK cells = experiment: MTT assay (MDCK cells); assay type: cell-based, canine; details: final concentration of 10 μg/mL
Protocol: The cells were then washed with 10% FCS DMEM, and incubated in 10% FCS DMEM containing 0.25 mg/mL MTT for 2 hr. The media were then removed, 200 μL of DMSO added to each well and the plates were shaken lightly for 1 hr prior to reading the absorbance at 550 nm.

[3] = Influenza A virus, MDCK, read-out: IC50 (nM) Influenza-Induced CPE
[4] = Influenza A virus; MDCK cells, H1N1 A/PR/8/34, MOI 0.1; non-linear regression; read-out: IC50 (nM) Influenza-Induced CPE
[5] = MDCK; read-out: IC50 (nM) Influenza-Induced CPE

Chain of c-Src enzyme (P12931 whole entry): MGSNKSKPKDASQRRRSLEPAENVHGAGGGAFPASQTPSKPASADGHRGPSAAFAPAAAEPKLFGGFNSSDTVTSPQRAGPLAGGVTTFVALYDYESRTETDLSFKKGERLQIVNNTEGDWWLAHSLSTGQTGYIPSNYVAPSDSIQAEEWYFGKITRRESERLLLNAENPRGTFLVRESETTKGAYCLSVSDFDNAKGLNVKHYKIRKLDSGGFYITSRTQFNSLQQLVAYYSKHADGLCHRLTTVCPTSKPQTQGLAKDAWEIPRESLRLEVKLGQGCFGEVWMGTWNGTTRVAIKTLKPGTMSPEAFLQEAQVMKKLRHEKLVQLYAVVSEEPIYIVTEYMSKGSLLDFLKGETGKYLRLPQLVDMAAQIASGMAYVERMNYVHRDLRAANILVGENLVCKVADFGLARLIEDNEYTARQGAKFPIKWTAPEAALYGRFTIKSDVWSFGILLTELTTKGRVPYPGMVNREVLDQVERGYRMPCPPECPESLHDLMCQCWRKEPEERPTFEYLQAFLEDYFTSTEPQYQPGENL
Chain of HCK enzyme (P08631 22-526): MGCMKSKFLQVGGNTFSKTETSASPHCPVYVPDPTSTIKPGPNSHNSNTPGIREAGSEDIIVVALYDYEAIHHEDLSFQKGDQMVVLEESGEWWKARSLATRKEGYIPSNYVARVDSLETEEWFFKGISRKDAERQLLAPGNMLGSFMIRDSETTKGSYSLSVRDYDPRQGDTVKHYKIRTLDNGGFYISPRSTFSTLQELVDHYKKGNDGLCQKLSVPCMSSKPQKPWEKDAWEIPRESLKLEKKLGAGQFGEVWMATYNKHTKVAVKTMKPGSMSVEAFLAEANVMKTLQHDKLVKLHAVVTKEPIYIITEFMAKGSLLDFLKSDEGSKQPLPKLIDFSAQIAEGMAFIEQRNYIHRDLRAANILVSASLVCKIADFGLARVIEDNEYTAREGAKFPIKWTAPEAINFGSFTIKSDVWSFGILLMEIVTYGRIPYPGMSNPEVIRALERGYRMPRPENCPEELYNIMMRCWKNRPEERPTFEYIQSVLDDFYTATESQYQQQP
Chain of p38 MAPKα (MAPK14) (Q16539 whole entry): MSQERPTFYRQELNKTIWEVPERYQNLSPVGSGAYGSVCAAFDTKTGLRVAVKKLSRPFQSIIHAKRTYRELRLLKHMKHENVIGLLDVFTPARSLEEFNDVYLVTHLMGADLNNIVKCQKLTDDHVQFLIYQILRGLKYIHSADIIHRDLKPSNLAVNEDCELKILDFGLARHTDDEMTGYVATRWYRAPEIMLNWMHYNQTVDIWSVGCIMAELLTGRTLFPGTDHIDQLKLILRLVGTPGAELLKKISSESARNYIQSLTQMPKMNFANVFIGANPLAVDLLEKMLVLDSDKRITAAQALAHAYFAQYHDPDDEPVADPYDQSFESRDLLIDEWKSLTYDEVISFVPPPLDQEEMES

Structure (SMILES)	IC50 (p38 MAPKα (MAPK14))	IC50 (HCK enzyme)	IC50 (c-Src enzyme)	IC50 [1, 4]	further results
COCC(=O)Nc1cc(COc2ccc(NC(=O)Nc3cc(C(C)(C)C)nn3-c3ccc(C)cc3)c3ccccc23)ccn1 [Example 1, N-(4-((4-(3-(3-tert-Butyl-1-p-tolyl-1H-pyrazol-5-yl)ureido)naphthalen-1-yloxy)methyl)pyridin-2-yl)-2-methoxyacetamide]	–	–	–	–	IC50 [1, 3]: 6 nM; Lung viral load [2]: 8.1 ± 1.9 pfu/g lung tissue (×10^6); decrease in viral load versus vehicle controls [2]: approximately 80%
COCC(=O)Nc1cc(COc2ccc(NC(=O)Nc3cc(C(C)(C)C)nn3-c3ccc(CO)cc3)c3ccccc23)ccn1 [Example 49, N-(4-((4-(3-(3-tert-Butyl-1-(4-(hydroxymethyl)phenyl)-1H-pyrazol-5-yl)ureido)naphthalen-1-yloxy)methyl)pyridin-2-yl)-2-methoxyacetamide]	5 nM	24 nM	155 nM	32 nM	–
COCCNC(=O)CNC(=O)Nc1cc(COc2ccc(NC(=O)Nc3cc(C(C)(C)C)nn3-c3ccc(C)cc3)c3ccccc23)ccn1 [Example 15, 2-(3-(4-((4-(3-(3-tert-Butyl-1-p-tolyl-1H-pyrazol-5-yl)ureido)naphthalen-1-yloxy)methyl)pyridin-2-yl)ureido)-N-(2-methoxyethyl)acetamide]	–	65 nM	28 nM	–	IC50 [1, 5]: > 0.2 µg/mL; MTT assay 4 hr (MDCK cells; 4 hr): −ve (<30% = −ve); MTT assay 24 hr (MDCK cells; 24 hr): −ve (<30% = −ve)
Cc1ccc(-n2nc(C(C)(C)C)cc2NC(=O)Nc2ccc(OCc3ccnc(NC(=O)CS(=O)(=O)CCN4CCOCC4)c3)c3ccccc23)cc1 [Example 32, N-(4-((4-(3-(3-tert-Butyl-1-p-tolyl-1H-pyrazol-5-yl)ureido)naphthalen-1-yloxy)methyl)pyridin-2-yl)-2-(2-morpholinoethylsulfonyl)acetamide]	1 nM	183 nM	111 nM	–	IC50 [1, 5]: > 0.04 µg/mL
CNC(=O)Nc1cnccc1COc1ccc(NC(=O)Nc2cc(C(C)(C)C)nn2-c2ccc(C)cc2)c2ccccc12 [Example 34, 1-(4-((3-Methylureidopyridin-4-yl)methoxy)naphthalen-1-yl)-3-(3-tert-butyl-1-p-tolyl-1H-pyrazol-5-yl)urea]	–	742 nM	> 17300 nM	–	IC50 [1, 5]: > 0.2 µg/mL
Cc1ccc(-n2nc(C(C)(C)C)cc2NC(=O)Nc2ccc(OCc3ccnc(NC(=O)CCS(C)(=O)=O)c3)c3ccccc23)cc1 [Example 17, N-(4-((4-(3-(3-tert-Butyl-1-p-tolyl-1H-pyrazol-5-yl)ureido)naphthalen-1-yloxy)methyl)pyridin-2-yl)-3-(methylsulfonyl)propanamide]	2.7 nM	60 nM	149 nM	64 nM	–
CNC(=O)Nc1cc(COc2ccc(NC(=O)Nc3cc(C(C)(C)C)nn3-c3ccc(C)cc3)c3ccccc23)ccn1 [Example 2, Methyl 4-((4-(3-(3-tert-butyl-1-p-tolyl-1H-pyrazol-5-yl)ureido)naphthalen-1-yloxy)methyl)pyridin-2-ylurea]	2.8 nM	17 nM	45 nM	11 nM	–
Cc1ccc(-n2nc(C(C)(C)C)cc2NC(=O)Nc2ccc(OCc3ccnc(NC(=O)CCCN(C)C)c3)c3ccccc23)cc1 [Example 16, N-(4-((4-(3-(3-tert-Butyl-1-p-tolyl-1H-pyrazol-5-yl)ureido)naphthalen-1-yloxy)methyl)pyridin-2-yl)-4-(dimethylamino)butanamide]	10.3 nM	20 nM	28 nM	166 nM	–
Cc1ccc(-n2nc(C(C)(C)C)cc2NC(=O)Nc2ccc(OCc3ccnc(NC(=O)C[S+](C)[O-])c3)c3ccccc23)cc1 (stereo not shown) [Example 20, N-(4-((4-(3-(3-tert-Butyl-1-p-tolyl-1H-pyrazol-5-yl)ureido)naphthalen-1-yloxy)methyl)pyridin-2-yl)-2-(methylsulfinyl)acetamide]	–	176 nM	161 nM	–	IC50 [1, 3]: 486 nM
COCCOCC(=O)Nc1cnccc1COc1ccc(NC(=O)Nc2cc(C(C)(C)C)nn2-c2ccc(C)cc2)c2ccccc12 [Example 36, N-(4-((4-(3-(3-tert-Butyl-1-p-tolyl-1H-pyrazol-5-yl)ureido)naphthalen-1-yloxy)methyl)pyridin-3-yl)-2-(2-methoxyethoxy)acetamide]	–	> 1570 nM	9330 nM	–	IC50 ([1]; MDCK, read-out: IC50 (nM) Influenza-Induced CPE): > 0.2 µg/mL
Cc1ccc(-n2nc(C(C)(C)C)cc2NC(=O)Nc2ccc(OCCc3ccnc(NC(N)=O)c3)c3ccccc23)cc1 [Example 40, 4-(2-(4-(3-(3-tert-Butyl-1-p-tolyl-1H-pyrazol-5-yl)ureido)naphthalen-1-yloxy)ethyl)-3-(pyridin-2-yl)urea]	–	276 nM	> 17300 nM	–	IC50 [1, 3]: 97 nM
